Reference: patent US12612407B2, “Imidazo[2,1-f][1,2,4]triazin-4-amine derivatives as TLR7 agonist” (BEIGENE, LTD., priority 2020, dated 2026)

Key:
human TLR7 = target: T1, human TLR7 (Homo sapiens, UniProt Q9NYK1); assay: TLR7 Stimulation Determined Using HEK-Blue Detection; format: cell-based; settings: HEK-Blue hTLR7 cells, 16 hr, percentages of maximum activation with Resiquimod, Table 1, B233-B247
T1 construct: host or cells: HEK293 (HEK-Blue hTLR7)
T1 sequence (Q9NYK1 27-1049): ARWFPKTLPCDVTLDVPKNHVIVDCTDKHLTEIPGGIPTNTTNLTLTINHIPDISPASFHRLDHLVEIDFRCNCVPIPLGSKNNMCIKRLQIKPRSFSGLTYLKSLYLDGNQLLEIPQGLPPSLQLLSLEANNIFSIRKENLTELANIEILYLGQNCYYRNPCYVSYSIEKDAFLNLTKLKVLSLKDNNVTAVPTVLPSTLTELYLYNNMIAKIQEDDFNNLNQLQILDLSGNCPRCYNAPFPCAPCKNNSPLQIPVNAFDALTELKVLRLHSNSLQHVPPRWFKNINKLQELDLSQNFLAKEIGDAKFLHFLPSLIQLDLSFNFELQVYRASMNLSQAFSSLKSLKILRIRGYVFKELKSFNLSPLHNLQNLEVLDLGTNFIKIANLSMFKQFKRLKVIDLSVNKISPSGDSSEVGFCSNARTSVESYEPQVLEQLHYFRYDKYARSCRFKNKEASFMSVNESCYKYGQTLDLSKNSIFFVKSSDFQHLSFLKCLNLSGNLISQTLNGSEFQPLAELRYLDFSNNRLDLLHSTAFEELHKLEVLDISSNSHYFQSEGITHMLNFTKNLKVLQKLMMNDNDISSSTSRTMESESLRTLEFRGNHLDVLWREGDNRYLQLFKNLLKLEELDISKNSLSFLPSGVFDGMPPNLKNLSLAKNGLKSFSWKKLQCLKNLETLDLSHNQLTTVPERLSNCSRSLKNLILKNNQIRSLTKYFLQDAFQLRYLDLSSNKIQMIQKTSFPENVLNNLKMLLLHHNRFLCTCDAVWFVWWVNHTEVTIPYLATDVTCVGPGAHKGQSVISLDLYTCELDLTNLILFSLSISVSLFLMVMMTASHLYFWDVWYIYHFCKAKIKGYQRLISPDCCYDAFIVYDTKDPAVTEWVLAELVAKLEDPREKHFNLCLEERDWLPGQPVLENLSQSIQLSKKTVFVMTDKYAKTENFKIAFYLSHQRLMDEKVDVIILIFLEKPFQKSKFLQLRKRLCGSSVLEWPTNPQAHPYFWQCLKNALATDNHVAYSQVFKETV
From the text: TLR7 Stimulation Determined Using HEK-Blue Detection
(§1) This assay was designed for studying the stimulation of human TLR7 protein in HEK-Blue hTLR7 tool cell line by monitoring the activation of NF-κB. HEK-Blue hTLR7 cells were obtained by co-transfection of the hTLR7 gene and an optimized secreted embryonic alkaline phosphatase (SEAP) reporter gene into HEK293 cells. The SEAP reporter gene was placed under the control of the IFN-β minimal promoter fused to five NF-κB and AP-1-binding sites. Stimulation with a TLR7 ligand activates NF-κB and AP-1 which induce the expression of SEAP. Levels of SEAP can be easily determined with HEK-Blue Detection, a cell culture medium that allows for real-time detection of SEAP. HEK-Blue Detection contains all the nutrients necessary for cell growth and a specific SEAP color substrate. The hydrolysis of the substrate by SEAP produces a purple/blue color that can be measured with a spectrophotometer.
(§2) When growing to 50-80% confluency, HEK-Blue hTLR7 cells were plated into 96-well plate (costar 3599) at a density of 40000 cells/well. Then compounds were added with serial dilutions over 10 points with a 0.04 nM-10 μM final concentration range in 0.1% DMSO/HEK-Blue Detection. The plates were then incubated for 16 hr at 37° C. in 5% CO2 and vortex for 30 s before measurement. The optical density at 620-655 nm was read on BMG PHERAstar FSX instrument. The EC50 for each compound was determined by calculating the percentages of the maximum activation identified with Resiquimod.

human TLR 8 protein = target: T2, human TLR 8 protein (Homo sapiens, UniProt Q9NR97); assay: TLR8 Stimulation determined using HEK-Blue Detection; format: cell-based; settings: HEK-Blue hTLR8 cells, 16 hr, percentages of maximum activation with Resiquimod or Motolimod, Table 3
T2 construct: expressed in transfected cells; host or cells: HEK293 (HEK-Blue hTLR8)
T2 sequence (Q9NR97 27-1041): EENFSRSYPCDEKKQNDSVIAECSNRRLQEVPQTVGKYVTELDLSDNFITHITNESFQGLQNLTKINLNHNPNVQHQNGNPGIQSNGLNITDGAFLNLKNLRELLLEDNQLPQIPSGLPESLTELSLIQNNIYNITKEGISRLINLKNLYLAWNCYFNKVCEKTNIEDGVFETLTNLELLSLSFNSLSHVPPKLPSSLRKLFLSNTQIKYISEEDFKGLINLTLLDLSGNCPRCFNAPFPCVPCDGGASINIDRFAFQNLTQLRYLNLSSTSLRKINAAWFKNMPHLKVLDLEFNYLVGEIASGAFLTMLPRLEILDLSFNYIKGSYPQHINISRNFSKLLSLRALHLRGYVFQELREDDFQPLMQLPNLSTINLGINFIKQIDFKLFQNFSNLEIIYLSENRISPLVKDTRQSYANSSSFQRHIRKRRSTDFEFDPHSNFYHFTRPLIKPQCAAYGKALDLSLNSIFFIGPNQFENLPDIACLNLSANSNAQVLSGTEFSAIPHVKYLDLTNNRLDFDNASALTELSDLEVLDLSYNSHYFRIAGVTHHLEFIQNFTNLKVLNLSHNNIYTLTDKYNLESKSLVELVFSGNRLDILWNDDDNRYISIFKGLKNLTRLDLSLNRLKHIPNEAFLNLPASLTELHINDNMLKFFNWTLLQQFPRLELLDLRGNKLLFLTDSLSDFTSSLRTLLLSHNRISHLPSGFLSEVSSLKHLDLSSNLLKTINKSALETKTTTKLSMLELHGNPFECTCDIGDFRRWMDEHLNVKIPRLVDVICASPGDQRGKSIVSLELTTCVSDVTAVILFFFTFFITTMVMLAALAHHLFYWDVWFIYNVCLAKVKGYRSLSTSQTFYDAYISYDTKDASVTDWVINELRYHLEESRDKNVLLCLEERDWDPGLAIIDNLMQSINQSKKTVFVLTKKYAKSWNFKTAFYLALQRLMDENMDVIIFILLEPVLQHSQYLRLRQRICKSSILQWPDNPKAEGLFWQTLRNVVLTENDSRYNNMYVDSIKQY
From the text: TLR8 Stimulation determined using HEK-Blue Detection
as §1, with “TLR 8” for “TLR7”, “hTLR8” for “hTLR7”
as §2, with “hTLR7/8” for “hTLR7”, “1” for “0.04”, “uM” for “μM”, “CO2.” for “CO2 and vortex for 30 s before measurement.”, “Resiquimod or Motolimod.” for “Resiquimod.”

Structure (SMILES)	EC50 (human TLR7)	EC50 (human TLR 8 protein)
CCCC(C)Oc1nc(N)c2ncc(Cc3ccc(C4CCNCC4)nc3F)n2n1 (centres unmarked) [Compound B238, 7-((2-fluoro-6-(piperidin-4-yl)pyridin-3-yl)methyl)-2-(pentan-2-yloxy)imidazo[2,1-f][1,2,4]triazin-4-amine]	6.7 nM	169 nM
CCC[C@H](C)Oc1nc(N)c2ncc(Cc3ccc(C4CCNCC4)nc3F)n2n1 [Compound B239, (S)-7-((2-fluoro-6-(piperidin-4-yl)pyridin-3-yl)methyl)-2-(pentan-2-yloxy)imidazo[2,1-f][1,2,4]triazin-4-amine]	3.3 nM	122 nM
CCC[C@H](C)Nc1nc(N)c2ncc(Cc3cnc(C4CCNCC4)c(C)c3)n2n1 [Compound B240, (S)-7-((5-methyl-6-(piperidin-4-yl)pyridin-3-yl)methyl)-N2-(pentan-2-yl)imidazo[2,1-f][1,2,4]triazine-2,4-diamine]	1 nM	1510 nM
CCC[C@H](C)Oc1nc(N)c2ncc(Cc3cnc(N4CCNCC4)c(OC)c3)n2n1 [Compound B241, (S)-7-((5-methoxy-6-(piperazin-1-yl)pyridin-3-yl)methyl)-2-(pentan-2-yloxy)imidazo[2,1-f][1,2,4]triazin-4-amine]	5.5 nM	445 nM
CCCC(CCO)Oc1nc(N)c2ncc(Cc3ccc(C4CCNCC4)nc3F)n2n1 (centres unmarked) [Compound B242, 3-((4-amino-7-((2-fluoro-6-(piperidin-4-yl)pyridin-3 yl)methyl)imidazo[2,1-f][1,2,4]triazin-2-yl)oxy)hexan-1-ol]	9.8 nM	74 nM
CCC[C@H](C)Oc1nc(N)c2ncc(Cc3ccn(C4CCNCC4)c(=O)c3)n2n1 [Compound B243, (S)-4-((4-amino-2-(pentan-2-yloxy)imidazo[2,1-f][1,2,4]triazin-7-yl)methyl)-1-(piperidin-4-yl)pyridin-2(1H)-one]	35 nM	365 nM
CCC[C@H](C)Nc1nc(N)c2ncc(Cc3cnc(N4CCN(C(=O)CN(C)CCNC)CC4)c(C)c3)n2n1 [Compound B244, (S)-1-(4-(5-((4-amino-2-(pentan-2-ylamino)imidazo[2,1-f][1,2,4]triazin-7-yl)methyl)-3-methylpyridin-2-yl)piperazin-1-yl)-2-(methyl(2-(methylamino)ethyl)amino)ethan-1-one]	12 nM	> 10000 nM
CCC[C@H](C)Nc1nc(N)c2ncc(Cc3cnc(N4CCN(C(=O)CN)CC4)c(C)c3)n2n1 [Compound B246, (S)-2-amino-1-(4-(5-((4-amino-2-(pentan-2-ylamino)imidazo[2,1-f][1,2,4]triazin-7-yl)methyl)-3-methylpyridin-2-yl)piperazin-1-yl)ethan-1-one]	10.9 nM	> 10000 nM

Other lines, results leading:

EC50 (human TLR7)	EC50 (human TLR 8 protein)	Structure (SMILES)
5.3 nM	451 nM	CCCC(C)Oc1nc(N)c2ncc(Cc3cnc(N4CCC(CNCC(C)C)CC4)c(C)c3)n2n1 (centres unmarked) [Compound B234, 7-((6-(4-((isobutylamino)methyl)piperidin-1-yl)-5-methylpyridin-3-yl)methyl)-2-(pentan-2-yloxy)imidazo[2,1-f][1,2,4]triazin-4-amine]
63 nM	3630 nM	CCCC(CO)Oc1nc(N)c2ncc(Cc3cnc(N4CCC(CNC)CC4)c(C)c3)n2n1 (centres unmarked) [Compound B235, 2-((4-amino-7-((5-methyl-6-(4-((methylamino)methyl)piperidin-1-yl)pyridin-3-yl)methyl)imidazo[2,1-f][1,2,4]triazin-2-yl)oxy)pentan-1-ol]
648 nM	> 10000 nM	CCCC(O)COc1nc(N)c2ncc(Cc3cnc(N4CCC(CNC)CC4)c(C)c3)n2n1 (centres unmarked) [Compound B236, 1-((4-amino-7-((5-methyl-6-(4-((methylamino)methyl)piperidin-1-yl)pyridin-3-yl)methyl)imidazo[2,1-f][1,2,4]triazin-2-yl)oxy)pentan-2-ol]
2.5 nM	485 nM	CCC[C@H](C)Nc1nc(N)c2ncc(Cc3cnc(N4CCC(CN(C)CCNC)CC4)c(C)c3)n2n1 [Compound B245, (S)-7-((5-methyl-6-(4-((methyl(2-(methylamino)ethyl)amino)methyl)piperidin-1-yl)pyridin-3-yl)methyl)-N2-(pentan-2-yl)imidazo[2,1-f][1,2,4]triazine-2,4-diamine]
0.6 nM	> 10000 nM	CCC[C@H](C)Nc1nc(N)c2ncc(Cc3cnc(N4CCN(CCO)CC4)c(C)c3)n2n1 [Compound B247, (S)-2-(4-(5-((4-amino-2-(pentan-2-ylamino)imidazo[2,1-f][1,2,4]triazin-7-yl)methyl)-3-methylpyridin-2-yl)piperazin-1-yl)ethan-1-ol]
